Reference: ChEMBL document CHEMBL3885861, “Open TG-GATES”

Organism: Rattus norvegicus
Experiment: Open TG-GATES - Regimen: Daily Repeat
Format: toxicity, organism-based, Sprague-Dawley
Design: regimen Daily Repeat, gender Male, age 6 weeks
Conditions: in vivo, po, 1 mg/kg, route gavage, dose level Low; for APTT / Bas / Eos / Fbg / Hb / Ht / Lym / MCH / MCHC / MCV / Mono / Neu / PT / Plat / RBC / Ret / WBC: tissue Blood
[1] = 72 h, tissue Kidney, time 3 day
[2] = 72 h, tissue Plasma, time 3 day

O=NN(CCCl)C(=O)NC1CCCCC1 [LOMUSTINE]
TERMINAL_BW (72 h, time 3 day): 228.6 g | APTT (72 h, time 3 day): 15.3 s | Bas (72 h, time 3 day): 0% | Eos (72 h, time 3 day): 0.8% | Fbg (72 h, time 3 day): 224.2 mg/dL | Hb (72 h, time 3 day): 12.9 g/dL | Ht (72 h, time 3 day): 38.5% | Lym (72 h, time 3 day): 81.2% | MCH (72 h, time 3 day): 21.6 pg | MCHC (72 h, time 3 day): 33.4% | MCV (72 h, time 3 day): 64.8 fL | Mono (72 h, time 3 day): 7.6% | Neu (72 h, time 3 day): 10.2% | PT (72 h, time 3 day): 11.8 s | Plat (72 h, time 3 day): 108.2 x10_4/uL | RBC (72 h, time 3 day): 594.4 x10_4/ul | Ret (72 h, time 3 day): 8.5% | WBC (72 h, time 3 day): 121.5 x10_2/uL | KIDNEY_L [1]: 1.1 g | KIDNEY_R [1]: 1.1 g | KIDNEY_TOTAL [1]: 2.2 g | LIVER (72 h, tissue Liver, time 3 day): 11.3 g | A/G [2]: 2.2 | ALP [2]: 863 IU/L | ALT [2]: 30 IU/L | AST [2]: 62 IU/L | BUN [2]: 16 mg/dL | CRE [2]: 0.5 mg/dL | Ca [2]: 11.1 mg/dL | Cl [2]: 105 meq/L | DBIL [2]: 0.022 mg/dL | GLC [2]: 188 mg/dL | IP [2]: 8.1 mg/dL | K [2]: 4.9 meq/L | LDH [2]: 78 IU/L | Na [2]: 138.6 meq/L | PL [2]: 144 mg/dL | RALB [2]: 3.9 g/dL | TBIL [2]: 0.3 mg/dL | TC [2]: 79.2 mg/dL | TG [2]: 85.8 mg/dL | TP [2]: 5.7 g/dL | gamma-GTP [2]: 1 IU/L | TERMINAL_BW ([…], time 7 day): 255.7 g | TERMINAL_BW ([…], time 14 day): 313 g | TERMINAL_BW ([…], time 28 day): 386.4 g | APTT ([…], time 7 day): 16.6 s | Bas ([…], time 7 day): 0% | Eos ([…], time 7 day): 0.6% | Fbg ([…], time 7 day): 235.2 mg/dL | Hb ([…], time 7 day): 13.3 g/dL | Ht ([…], time 7 day): 39.5% | Lym ([…], time 7 day): 80% | MCH ([…], time 7 day): 21.3 pg | MCHC ([…], time 7 day): 33.6% | MCV ([…], time 7 day): 63.6 fL | Mono ([…], time 7 day): 7.4% | Neu ([…], time 7 day): 12.4% | PT ([…], time 7 day): 11.7 s | Plat ([…], time 7 day): 109.6 x10_4/uL | RBC ([…], time 7 day): 621.2 x10_4/ul | Ret ([…], time 7 day): 6.3% | WBC ([…], time 7 day): 117.4 x10_2/uL | APTT ([…], time 14 day): 16.9 s | Bas ([…], time 14 day): 0% | Eos ([…], time 14 day): 0.6% | Fbg ([…], time 14 day): 235 mg/dL | Hb ([…], time 14 day): 13.9 g/dL | Ht ([…], time 14 day): 41.4% | Lym ([…], time 14 day): 83.4% | MCH ([…], time 14 day): 20.8 pg | MCHC ([…], time 14 day): 33.6% | MCV ([…], time 14 day): 61.9 fL | Mono ([…], time 14 day): 4.8% | Neu ([…], time 14 day): 11.4% | PT ([…], time 14 day): 11.5 s | Plat ([…], time 14 day): 119.3 x10_4/uL | RBC ([…], time 14 day): 669.6 x10_4/ul | Ret ([…], time 14 day): 5.5% | WBC ([…], time 14 day): 116.8 x10_2/uL | APTT ([…], time 28 day): 16.6 s | Bas ([…], time 28 day): 0% | Eos ([…], time 28 day): 1.2% | Fbg ([…], time 28 day): 225 mg/dL | Hb ([…], time 28 day): 15.1 g/dL | Ht ([…], time 28 day): 45.4%
